Data reported in patent publication US20090246276A1, “Pharmaceutical Compositions” (priority 2008, published 2009).
Structures can show the parent of a compound that is named as a salt.

Assay: In-vitro dissolution, 900 ml medium (0.1N HCl, pH 4.5 acetate buffer, pH 6.8 or pH 7.5 phosphate buffer), USP Apparatus 1, 75 rpm, 37° C.
Type: physicochemical
Settings: for % Released (Bi-layer Tablets): Example 16 coated bi-layer tablet; for % Released (Homogenous Tablets): Example 19 tablet
Protocol: The dissolution profile of the above pharmaceutical composition was determined under the dissolution conditions described below in Tables 1A, 1B, and 1C.

- % Released (Example 2 tablet, 0.1N HCl, 1 hr): 15%
- % Released (Example 2 tablet, 0.1N HCl, 2 hr): 35%
- % Released (Example 2 tablet, 0.1N HCl, 4 hr): 68%
- % Released (Example 2 tablet, 0.1N HCl, 8 hr): 99%
- % Released (Example 2 tablet, 0.1N HCl, 12 hr): 102%
- % Released (Example 2 tablet, 0.1N HCl, 16 hr): 101%
- % Released (Example 2 tablet, pH 4.5 acetate buffer, 1 hr): 15%
- % Released (Example 2 tablet, pH 4.5 acetate buffer, 2 hr): 35%
- % Released (Example 2 tablet, pH 4.5 acetate buffer, 4 hr): 64%
- % Released (Example 2 tablet, pH 4.5 acetate buffer, 8 hr): 97%
- % Released (Example 2 tablet, pH 4.5 acetate buffer, 12 hr): 101%
- % Released (Example 2 tablet, pH 4.5 acetate buffer, 16 hr): 100%
- % Released (Example 2 tablet, pH 6.8 phosphate buffer, 1 hr): 14%
- % Released (Example 2 tablet, pH 6.8 phosphate buffer, 2 hr): 33%
- % Released (Example 2 tablet, pH 6.8 phosphate buffer, 4 hr): 61%
- % Released (Example 2 tablet, pH 6.8 phosphate buffer, 8 hr): 92%
- % Released (Example 2 tablet, pH 6.8 phosphate buffer, 12 hr): 96%
- % Released (Example 2 tablet, pH 6.8 phosphate buffer, 16 hr): 96%
- % Released (Example 3 tablet, 0.1N HCl, 1 hr): 14%
- % Released (Example 3 tablet, 0.1N HCl, 2 hr): 32%
- % Released (Example 3 tablet, 0.1N HCl, 4 hr): 63%
- % Released (Example 3 tablet, 0.1N HCl, 8 hr): 102%
- % Released (Example 3 tablet, 0.1N HCl, 12 hr): 106%
- % Released (Example 3 tablet, 0.1N HCl, 16 hr): 105%
- % Released (Example 3 tablet, pH 4.5 acetate buffer, 1 hr): 13%
- % Released (Example 3 tablet, pH 4.5 acetate buffer, 2 hr): 29%
- % Released (Example 3 tablet, pH 4.5 acetate buffer, 4 hr): 57%
- % Released (Example 3 tablet, pH 4.5 acetate buffer, 8 hr): 96%
- % Released (Example 3 tablet, pH 4.5 acetate buffer, 12 hr): 102%
- % Released (Example 3 tablet, pH 4.5 acetate buffer, 16 hr): 101%
- % Released (Example 3 tablet, pH 6.8 phosphate buffer, 1 hr): 13%
- % Released (Example 3 tablet, pH 6.8 phosphate buffer, 2 hr): 29%
- % Released (Example 3 tablet, pH 6.8 phosphate buffer, 4 hr): 59%
- % Released (Example 3 tablet, pH 6.8 phosphate buffer, 8 hr): 99%
- % Released (Example 3 tablet, pH 6.8 phosphate buffer, 12 hr): 104%
- % Released (Example 3 tablet, pH 6.8 phosphate buffer, 16 hr): 104%
- % Released (Example 5 tablet, 0.1N HCl, 1 hr): 13%
- % Released (Example 5 tablet, 0.1N HCl, 2 hr): 26%
- % Released (Example 5 tablet, 0.1N HCl, 4 hr): 49%
- % Released (Example 5 tablet, 0.1N HCl, 8 hr): 81%
- % Released (Example 5 tablet, 0.1N HCl, 12 hr): 97%
- % Released (Example 5 tablet, 0.1N HCl, 16 hr): 98%
- % Released (Example 6 tablet, 0.1N HCl, 1 hr): 16%
- % Released (Example 6 tablet, 0.1N HCl, 2 hr): 34%
- % Released (Example 6 tablet, 0.1N HCl, 4 hr): 63%
- % Released (Example 6 tablet, 0.1N HCl, 8 hr): 97%
- % Released (Example 6 tablet, 0.1N HCl, 12 hr): 100%
- % Released (Example 6 tablet, 0.1N HCl, 16 hr): 100%
- % Released (Example 7 tablet, 0.1N HCl, 1 hr): 2%
- % Released (Example 7 tablet, 0.1N HCl, 2 hr): 7%
- % Released (Example 7 tablet, 0.1N HCl, 4 hr): 19%
- % Released (Example 7 tablet, 0.1N HCl, 8 hr): 44%
- % Released (Example 7 tablet, 0.1N HCl, 12 hr): 63%
- % Released (Example 7 tablet, 0.1N HCl, 16 hr): 77%
- % Released (Example 8 tablet, 0.1N HCl, 1 hr): 0%
- % Released (Example 8 tablet, 0.1N HCl, 2 hr): 1%
- % Released (Example 8 tablet, 0.1N HCl, 4 hr): 6%
- % Released (Example 8 tablet, 0.1N HCl, 8 hr): 19%
- % Released (Example 8 tablet, 0.1N HCl, 12 hr): 31%
- % Released (Example 8 tablet, 0.1N HCl, 16 hr): 40%
- % Released (Example 9 tablet, 0.1N HCl, 1 hr): 17%
- % Released (Example 9 tablet, 0.1N HCl, 2 hr): 48%
- % Released (Example 9 tablet, 0.1N HCl, 3 hr): 74%
- % Released (Example 9 tablet, 0.1N HCl, 4 hr): 93%
- % Released (Example 9 tablet, 0.1N HCl, 6 hr): 104%
- % Released (Example 9 tablet, 0.1N HCl, 8 hr): 103%
- % Released (Example 9 tablet, 0.1N HCl, 10 hr): 103%
- % Released (Example 10 tablet, 0.1N HCl, 1 hr): 14%
- % Released (Example 10 tablet, 0.1N HCl, 2 hr): 32%
- % Released (Example 10 tablet, 0.1N HCl, 4 hr): 59%
- % Released (Example 10 tablet, 0.1N HCl, 8 hr): 94%
- % Released (Example 10 tablet, 0.1N HCl, 12 hr): 99%
- % Released (Example 10 tablet, 0.1N HCl, 16 hr): 99%
- % Released (Example 11 tablet, 0.1N HCl, 1 hr): 16%
- % Released (Example 11 tablet, 0.1N HCl, 2 hr): 33%
- % Released (Example 11 tablet, 0.1N HCl, 4 hr): 56%
- % Released (Example 11 tablet, 0.1N HCl, 8 hr): 88%
- % Released (Example 11 tablet, 0.1N HCl, 12 hr): 97%
- % Released (Example 11 tablet, 0.1N HCl, 16 hr): 97%
- % Released (Example 12 tablet, 0.1N HCl, 1 hr): 8%
- % Released (Example 12 tablet, 0.1N HCl, 2 hr): 29%
- % Released (Example 12 tablet, 0.1N HCl, 3 hr): 47%
- % Released (Example 12 tablet, 0.1N HCl, 4 hr): 63%
- % Released (Example 12 tablet, 0.1N HCl, 5 hr): 77%
- % Released (Example 12 tablet, 0.1N HCl, 6 hr): 92%
- % Released (Example 12 tablet, 0.1N HCl, 7 hr): 98%
- % Released (Example 12 tablet, 0.1N HCl, 8 hr): 102%
- % Released (Example 13 tablet, 0.1N HCl, 1 hr): 9%
- % Released (Example 13 tablet, 0.1N HCl, 2 hr): 28%
- % Released (Example 13 tablet, 0.1N HCl, 3 hr): 45%
- % Released (Example 13 tablet, 0.1N HCl, 4 hr): 60%
- % Released (Example 13 tablet, 0.1N HCl, 6 hr): 83%
- % Released (Example 13 tablet, 0.1N HCl, 8 hr): 96%
- % Released (Example 13 tablet, 0.1N HCl, 10 hr): 99%
- % Released (Example 13 tablet, 0.1N HCl, 12 hr): 100%
- % Released (Example 13 tablet, 0.1N HCl, 16 hr): 100%
- % Released (Example 14 tablet, 0.1N HCl, 4 hr): 56%
- % Released (Example 14 tablet, 0.1N HCl, 6 hr): 76%
- % Released (Example 14 tablet, 0.1N HCl, 8 hr): 92%
- % Released (Example 14 tablet, 0.1N HCl, 10 hr): 99%
- % Released (Bi-layer Tablets) (0.1N HCl, 1 hr): 9.47%
- % Released (Bi-layer Tablets) (0.1N HCl, 2 hr): 27.06%
- % Released (Bi-layer Tablets) (0.1N HCl, 3 hr): 45.32%
- % Released (Bi-layer Tablets) (0.1N HCl, 4 hr): 60.81%
- % Released (Bi-layer Tablets) (0.1N HCl, 5 hr): 74.22%
- % Released (Bi-layer Tablets) (0.1N HCl, 6 hr): 83.48%
- % Released (Bi-layer Tablets) (0.1N HCl, 7 hr): 90.11%
- % Released (Bi-layer Tablets) (0.1N HCl, 8 hr): 93.47%
- % Released (Homogenous Tablets) (0.1N HCl, 1 hr): 16.65%
- % Released (Homogenous Tablets) (0.1N HCl, 2 hr): 40.32%
- % Released (Homogenous Tablets) (0.1N HCl, 3 hr): 59.61%
- % Released (Homogenous Tablets) (0.1N HCl, 4 hr): 75.31%
- % Released (Homogenous Tablets) (0.1N HCl, 5 hr): 86.68%
- % Released (Homogenous Tablets) (0.1N HCl, 6 hr): 94.46%
- % Released (Homogenous Tablets) (0.1N HCl, 7 hr): 99.30%
- % Released (Homogenous Tablets) (0.1N HCl, 8 hr): 101.01%
Structure (SMILES): CN(C)CCC[C@@]1(c2ccc(F)cc2)OCc2cc(C#N)ccc21 [Escitalopram Ox, escitalopram oxalate]
